Numbered stars: 1 amine (or outer) side, 2 acyl side, 3 side chain; on linkers, the order of the positions; unused ones are H or OH. Bridge positions count the residues as written; N and C are the ends. Square brackets hold non-standard residues; d marks the D form. Side chains are listed from the residue outwards. Peptide text beside a SMILES is read from it. * marks the point of attachment. Ethylenediamine = C(CN[*:2])N[*:1]; Hyp = O=C(O)[C@@H]1C[C@@H](O)CN1; Phg = N[C@H](C(=O)O)c1ccccc1; CO = O=C([*:1])[*:2]; Bn = c1ccc(C*)cc1
Key:
[1] = Stability in 90% human serum
Description: The new compounds were incubated with 90% human serum at 37° C. Aliquots were extracted at different incubation times. Acetonitrile was added to precipitate the proteins from the serum, it was centrifuged and the supernatant was filtered and injected in the RP-HPLC (Grad: 20-80% B in 30 min, B=0.07% TFA in acetonitrile). The disappearance of the initial product was analyzed using the area corresponding to the initial product and the half-life time was calculated.

sstr4 receptor = sstr4 receptor (Homo sapiens, UniProt P31391); conditions: literature, background; cited from earlier work
sstr4 receptor, sequence (P31391 whole entry): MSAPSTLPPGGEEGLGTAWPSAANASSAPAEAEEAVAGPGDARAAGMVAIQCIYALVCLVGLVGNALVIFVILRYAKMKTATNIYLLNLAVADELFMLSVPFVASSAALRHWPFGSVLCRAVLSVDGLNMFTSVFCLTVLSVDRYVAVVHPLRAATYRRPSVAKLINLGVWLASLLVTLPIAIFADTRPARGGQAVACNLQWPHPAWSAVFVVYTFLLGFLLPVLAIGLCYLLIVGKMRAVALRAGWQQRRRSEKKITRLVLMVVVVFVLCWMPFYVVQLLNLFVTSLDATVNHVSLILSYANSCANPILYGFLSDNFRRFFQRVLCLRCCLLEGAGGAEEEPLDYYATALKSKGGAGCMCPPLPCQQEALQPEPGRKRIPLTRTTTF

sstr2 receptor = sstr2 receptor (Homo sapiens, UniProt P30874); conditions: literature, background; cited from earlier work
sstr2 receptor, sequence (P30874 whole entry): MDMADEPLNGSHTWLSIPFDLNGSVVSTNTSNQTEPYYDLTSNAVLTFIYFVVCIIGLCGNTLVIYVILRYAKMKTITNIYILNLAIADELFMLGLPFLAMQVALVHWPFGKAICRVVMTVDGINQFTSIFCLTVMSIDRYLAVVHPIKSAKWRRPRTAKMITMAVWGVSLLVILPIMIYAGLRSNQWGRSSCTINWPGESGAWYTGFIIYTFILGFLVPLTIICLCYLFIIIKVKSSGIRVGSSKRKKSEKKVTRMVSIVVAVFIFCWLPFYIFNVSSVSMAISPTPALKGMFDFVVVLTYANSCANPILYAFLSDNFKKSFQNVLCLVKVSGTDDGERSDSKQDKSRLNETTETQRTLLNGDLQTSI

sstr1 receptor = sstr1 receptor (Homo sapiens, UniProt P30872); conditions: literature, background; cited from earlier work
sstr1 receptor, sequence (P30872 whole entry): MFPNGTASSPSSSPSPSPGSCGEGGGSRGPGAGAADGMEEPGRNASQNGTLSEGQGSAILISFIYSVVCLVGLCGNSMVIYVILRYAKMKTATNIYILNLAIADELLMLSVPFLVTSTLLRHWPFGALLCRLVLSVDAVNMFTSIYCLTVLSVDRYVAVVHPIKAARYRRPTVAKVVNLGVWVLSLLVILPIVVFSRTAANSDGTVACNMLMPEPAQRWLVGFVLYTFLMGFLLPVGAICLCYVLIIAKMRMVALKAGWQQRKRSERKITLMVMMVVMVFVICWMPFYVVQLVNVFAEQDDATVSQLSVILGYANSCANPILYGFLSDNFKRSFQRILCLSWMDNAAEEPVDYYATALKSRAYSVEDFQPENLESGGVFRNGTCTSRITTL

sstr3 receptor = sstr3 receptor (Homo sapiens, UniProt P32745); conditions: literature, background; cited from earlier work
sstr3 receptor, sequence (P32745 whole entry): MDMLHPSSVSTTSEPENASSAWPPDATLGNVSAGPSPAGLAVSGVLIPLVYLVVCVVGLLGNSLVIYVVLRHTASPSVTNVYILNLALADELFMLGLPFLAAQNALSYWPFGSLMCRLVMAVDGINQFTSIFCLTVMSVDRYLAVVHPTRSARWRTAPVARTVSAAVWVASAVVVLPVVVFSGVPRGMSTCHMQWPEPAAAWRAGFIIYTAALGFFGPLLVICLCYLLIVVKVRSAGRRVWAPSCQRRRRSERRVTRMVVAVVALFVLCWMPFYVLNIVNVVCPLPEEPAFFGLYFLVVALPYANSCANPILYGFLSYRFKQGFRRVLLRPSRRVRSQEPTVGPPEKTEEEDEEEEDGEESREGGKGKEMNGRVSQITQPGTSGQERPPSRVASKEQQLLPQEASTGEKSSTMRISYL

| Structure (SMILES) | half-life [1] [min] | affinity for the sstr4 receptor (sstr4 receptor) | affinity for the sstr2 receptor (sstr2 receptor) | affinity for the sstr1 receptor (sstr1 receptor) | affinity for the sstr3 receptor (sstr3 receptor) |
| --- | --- | --- | --- | --- | --- |
| Cc1cc(C)c(C[C@@H]2NC(=O)[C@H](CC(N)=O)NC(=O)[C@H](CCCCN)NC(=O)[C@@H](NC(=O)CNC(=O)[C@H](C)N)CSSC[C@@H](C(=O)O)NC(=O)[C@H](CO)NC(=O)[C@H]([C@@H](C)O)NC(=O)[C@H](Cc3ccccc3)NC(=O)[C@H]([C@@H](C)O)NC(=O)[C@H](CCCCN)NC(=O)[C@H](Cc3c[nH]c4ccccc34)NC(=O)[C@H](Cc3c(C)cc(C)cc3C)NC2=O)c(C)c1 [Compound 27] | 2630 | – | – | – | – |
| Cc1cc(C)c(C[C@@H]2NC(=O)[C@H](Cc3ccccc3)NC(=O)[C@H](CC(N)=O)NC(=O)[C@H](CCCCN)NC(=O)[C@@H](NC(=O)CNC(=O)[C@H](C)N)CSSC[C@@H](C(=O)O)NC(=O)[C@H](CO)NC(=O)[C@H]([C@@H](C)O)NC(=O)[C@H](Cc3ccccc3)NC(=O)[C@H]([C@@H](C)O)NC(=O)[C@H](CCCCN)NC(=O)[C@@H](Cc3c[nH]c4ccccc34)NC2=O)c(C)c1 [Compound 25] | 1480 | – | – | – | – |
| NCCCC[C@@H]1NC(=O)[C@@H](Cc2c[nH]c3ccccc23)NC(=O)[C@H](c2ccccc2)NC(=O)[C@@H]2C[C@@H](OC(=O)NCCN)CN2C(=O)[C@H](Cc2ccccc2)NC(=O)[C@H](Cc2ccc(OCc3ccccc3)cc2)NC1=O [pasireotide] (cyclo([Hyp]([CO-Ethylenediamine])[Phg][dW]KY(Bn)F)) | – | lost | an order of magnitude lower | – | – |
| CC(C)[C@@H]1NC(=O)[C@H](CCCCN)NC(=O)[C@@H](Cc2c[nH]c3ccccc23)NC(=O)[C@H](Cc2ccc(O)cc2)NC(=O)[C@@H](NC(=O)[C@H](N)Cc2ccc3ccccc3c2)CSSC[C@@H](C(=O)N[C@H](C(N)=O)[C@@H](C)O)NC1=O [lanreotide] | – | do not bind | high affinity | do not bind | moderate-low affinity |
| CC(C)[C@@H]1NC(=O)[C@H](CCCCN)NC(=O)[C@@H](Cc2c[nH]c3ccccc23)NC(=O)[C@H](Cc2ccc(O)cc2)NC(=O)[C@@H](NC(=O)[C@H](N)Cc2ccccc2)CSSC[C@@H](C(=O)N[C@@H](Cc2c[nH]c3ccccc23)C(N)=O)NC1=O [vapreotide] (H-[dF]CY[dW]KVCW-NH2; disulfide 2-7) | – | do not bind | high affinity | do not bind | moderate-low affinity |
| Cc1cc(C)c(C[C@@H]2NC(=O)[C@H]([C@@H](C)O)NC(=O)[C@H](CCCCN)NC(=O)[C@@H](Cc3c[nH]c4ccccc34)NC(=O)[C@H](Cc3ccccc3)NC(=O)[C@H](Cc3ccccc3)NC(=O)[C@H](CC(N)=O)NC(=O)[C@H](CCCCN)NC(=O)[C@@H](NC(=O)CNC(=O)[C@H](C)N)CSSC[C@@H](C(=O)O)NC(=O)[C@H](CO)NC(=O)[C@H]([C@@H](C)O)NC2=O)c(C)c1 [Compound 26] | 2460 | – | – | – | – |
| CCCCCCCCCCCCCCCC(=O)NCCCC[C@@H]1NC(=O)[C@@H](NC(=O)CNC(=O)[C@H](C)N)CSSC[C@@H](C(=O)O)NC(=O)[C@H](CO)NC(=O)[C@H]([C@@H](C)O)NC(=O)[C@H](Cc2ccccc2)NC(=O)[C@H]([C@@H](C)O)NC(=O)[C@H](CCCCN)NC(=O)[C@H](Cc2c[nH]c3ccccc23)NC(=O)[C@H](Cc2ccccc2)NC(=O)[C@H](Cc2ccccc2)NC(=O)[C@H](CC(N)=O)NC1=O [Compound 21] | 2500 | – | – | – | – |
| C[C@@H](O)[C@@H]1NC(=O)[C@H](CCCCN)NC(=O)[C@@H](Cc2c[nH]c3ccccc23)NC(=O)[C@H](Cc2ccccc2)NC(=O)[C@@H](NC(=O)[C@H](N)Cc2ccccc2)CSSC[C@@H](C(=O)N[C@H](CO)[C@@H](C)O)NC1=O [octreotide] | – | do not bind | high affinity | do not bind | moderate-low affinity |
| Cc1cc(C)c(C[C@@H]2NC(=O)[C@H](CC(N)=O)NC(=O)[C@H](CCCCN)NC(=O)[C@@H](NC(=O)CNC(=O)[C@H](C)N)CSSC[C@@H](C(=O)O)NC(=O)[C@H](CO)NC(=O)[C@H]([C@@H](C)O)NC(=O)[C@H](Cc3c(C)cc(C)cc3C)NC(=O)[C@H]([C@@H](C)O)NC(=O)[C@H](CCCCN)NC(=O)[C@H](Cc3c[nH]c4ccccc34)NC(=O)[C@H](Cc3c(C)cc(C)cc3C)NC2=O)c(C)c1 [Compound 30] | 5600 | – | – | – | – |
| Cc1cc(C)c(C[C@@H]2NC(=O)[C@H](CC(N)=O)NC(=O)[C@H](CCCCN)NC(=O)[C@@H](NC(=O)CNC(=O)[C@H](C)N)CSSC[C@@H](C(=O)O)NC(=O)[C@H](CO)NC(=O)[C@H]([C@@H](C)O)NC(=O)[C@H](Cc3ccccc3)NC(=O)[C@H]([C@@H](C)O)NC(=O)[C@H](CCCCN)NC(=O)[C@@H](Cc3c[nH]c4ccccc34)NC(=O)[C@H](Cc3ccccc3)NC2=O)c(C)c1 [Compound 24] | 1570 | – | – | – | – |
